# Measurements from patent US12203144B2, “Analytes' detection using regulated in vitro transcription” (Northwestern University, priority 2018, dated 2025).
# What was measured:
# MphR = MphR regulated in vitro transcription of 3WJdB; type: biochemical; conditions: FIG. 24
# From the text: Similarly, we tested the orthogonality of the TetR, OtrR, CtcS, and MphR with their respective ligands (FIG. 17). In the absence of the ligands or inducers, there was a strong repression of transcription by the ATFs as expected. Only the tetracycline antibiotics tested were able to cause an allosteric conformational change in TetR, OtrR, and CtcS and restore fluorescence signal equivalent to micromolar amounts of soluble FITC, confirming the results presented in FIG. 10A. Similarly, MphR was responsive to macrolide antibiotics, but not to any tetracycline antibiotics tested.
# CsoR = target: T1, CsoR (Bacillus subtilis, UniProt O32222); experiment: CsoR regulated in vitro transcription of 3WJdB (copper sensor); type: biochemical; conditions: for reactivity of the copper sensor against metals: FIG. 25A
# T1 construct: 6xHis; made in house; host or cells: E. coli Rosetta 2(DE3)pLysS
# T1 sequence (O32222 1-101): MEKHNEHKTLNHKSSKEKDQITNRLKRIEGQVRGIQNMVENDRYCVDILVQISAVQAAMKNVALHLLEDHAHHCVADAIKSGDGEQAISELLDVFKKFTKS
# From the text: (§1) Next, we sought to tune the sensitivity of the copper sensor to meet the EPA regulated limit of copper in drinking water (1.3 ppm). Without any tuning, the sensor detects 0.3 ppm of copper and above (FIG. 26a). To desensitize the sensor to respond near the EPA regulated limit of copper, we reasoned that excess CsoR could be added to the reactions to act as a copper chelator. […] To further implement this strategy of tuning the amount of transcription factors to shift the sensitivity of a sensor, we determined if the lead sensor can be sensitized by decreasing the amount of CadC dimer. When the concentration was decreased from 1.5 μM to 0.5 μM of CadC, we were able to shift the dose response curve to be more sensitive in order to detect tens of ppb of lead (FIG. 26b).
# SAR2349 = SAR2349 (Staphylococcus aureus, UniProt Q6GEG9); conditions: FIG. 24
# SAR2349, sequence (Q6GEG9 whole entry): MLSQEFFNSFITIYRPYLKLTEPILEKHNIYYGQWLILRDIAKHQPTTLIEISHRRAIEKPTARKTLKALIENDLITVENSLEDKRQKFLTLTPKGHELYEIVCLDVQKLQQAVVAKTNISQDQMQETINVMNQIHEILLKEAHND
# Procedure: In Vitro Transcription. DFHBI-1T was purchased from either Lucerna or Tocris Bioscience and resuspended in DMSO at 40 mM. 45 nmol of DFHBI-1T was used in each transcription reaction involving the 3WJdB aptamer. Data from FIG. 1 was generated using a HiScribe T7 Quick High Yield RNA Synthesis Kit from New England BioLabs following the manufacturer's protocol and using 1 μg of template DNA (˜5.2 pmol). All other T7 RNA polymerase transcriptions contained T7 transcription buffer (40 mM Tris-HCl pH 8.0, 20 mM NaCl, 10 mM DTT, 8 mM MgCl2, 2 mM spermidine), 8 mM NTPs, and 2 μL T7 RNA polymerase. Amount of template, inducer, and transcription factor are noted below each figure. T3 and SP6 RNA polymerase were purchased from New England BioLabs, and transcriptions using those polymerases were performed according to the manufacturers protocol. All transcriptions were performed at 37° C. and polymerase was added immediately before measurement.
# Reactions were monitored in real time by measuring on a BioTek Synergy H1 plate reader set to incubate at 37° C. For the 3WJdB output, an excitation wavelength of 472 nm and emission wavelength of 507 nm was used with measurements every 3 minutes. For the InvadeR system, excitation and emission wavelengths were set at 495 nm and 520 nm respectively and measurements were taken every minute.
# CadC = target: T2, CadC (Staphylococcus aureus, UniProt P20047); experiment: CadC regulated in vitro transcription of 3WJdB (lead sensor); type: biochemical; conditions: CadC dimer decreased from 1.5 μM to 0.5 μM, FIG. 26b
# T2 construct: 6xHis; made in house; host or cells: E. coli Rosetta 2(DE3)pLysS
# T2 sequence (P20047 whole entry): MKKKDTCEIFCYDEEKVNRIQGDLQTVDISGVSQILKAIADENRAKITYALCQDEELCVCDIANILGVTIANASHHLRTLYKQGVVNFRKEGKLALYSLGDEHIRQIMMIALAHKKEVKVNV
# From the text: as §1
# AdcR = target: T3, AdcR (Streptococcus pneumoniae serotype 2, UniProt Q04I02); experiment: adcO-regulated KB2 kleptamer circuit with AdcR; type: biochemical; conditions: unregulated 3WJdB template and adcO regulated KB2 template, FIG. 23
# T3 construct: Giedroc Lab (Indiana University Bloomington), gift
# T3 sequence (Q04I02 whole entry): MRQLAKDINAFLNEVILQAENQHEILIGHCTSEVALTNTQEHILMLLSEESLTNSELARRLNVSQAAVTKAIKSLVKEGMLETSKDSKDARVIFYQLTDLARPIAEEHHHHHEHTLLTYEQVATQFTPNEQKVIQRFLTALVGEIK
# From the text: ATF ligand-mediated transcriptional repression can be inverted to ligand-mediated activation with RNA genetic circuitry. We next tested the kleptamer system with an ATF that is known to bind to its operator site in the presence of its cognate ligand and therefore cause ligand-mediated repression. AdcR is a MarR-family ATF and known to regulate genes encoding a high-affinity ABC uptake system for zinc and cell-surface zinc-binding pneumococcal histidine triad proteins.^36 Unlike the ATFs we tested previously, apo-AdcR is unbound to its operator site. Upon binding Zn(II), AdcR undergoes a conformational change that results in binding to the operator site. We placed an operator site recognized by AdcR (adcO) upstream of the KB2 kleptamer so that when zinc is present, the transcription of the KB2 kleptamer is repressed by the AdcR-zinc complex and the fluorescence-activating 3WJdB aptamer is produced.
# TetR [1] = target: T4, TetR (Escherichia coli, UniProt P04483); experiment: TetR regulated in vitro transcription of 3WJdB with T3 or SP6 RNAP; type: biochemical; conditions: unoptimized
# T4 construct: 6xHis; made in house; host or cells: E. coli Rosetta 2(DE3)pLysS
# T4 sequence (P04483 whole entry): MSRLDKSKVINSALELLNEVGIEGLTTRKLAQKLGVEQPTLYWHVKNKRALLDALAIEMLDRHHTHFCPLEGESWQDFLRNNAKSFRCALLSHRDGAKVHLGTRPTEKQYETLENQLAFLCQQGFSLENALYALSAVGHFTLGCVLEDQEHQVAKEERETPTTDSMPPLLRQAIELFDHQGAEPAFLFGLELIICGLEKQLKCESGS
# From the text: RIViTS are modular with respect to RNA polymerase. T7 RNA polymerase is a single-subunit RNA polymerase from the T7 bacteriophage. It is closely related to the T3 and SP6 bacteriophages and their RNA polymerases are homologous. We reasoned that we could swap the T7-specific promoter from the TetR regulated in vitro transcription of 3WJdB for an SP6 or T3-specific promoter, and maintain the ability to repress and induce transcription by using the appropriate RNAP. […] We suspect that further optimization of the transcription reaction conditions (e.g. buffer composition) will substantially improve the fold-change between the repressed and derepressed states.
# TetR [2] = target: T4, TetR; experiment: TetR regulated in vitro transcription of 3WJdB, derepression by ligand; type: biochemical; conditions: 200 pmol of antibiotic, T7 RNAP, FIG. 7
# From the text: The family of tetracycline antibiotics are known ligands of the TetR repressor—they can induce an allosteric conformational change in TetR that results in a lowered affinity for the DNA operator sequence. Importantly, TetR repression of in vitro transcription is relieved if a cognate ligand is included immediately prior to measurement and coincident with the addition of T7 RNAP. […] This included anhydrotetracyline, tetracycline, oxytetracycline, chlortetracycline, and doxycycline. […] The 2 BP spacer (“GG”) promotes efficient transcription initiation with T7 RNAP.
# Finally, to validate that the TetR regulated in vitro transcription reactions were specifically responsive to tetracycline antibiotics and that fluorescence was not due to nonspecific activity, we tested the TetR regulated in vitro transcription reaction of the 3WJdB output against macrolide antibiotics (FIG. 10A) as well as other common antibiotics used in biological research (FIG. 10B). None of the non-tetracycline antibiotics tested here is known to induce a conformational change in TetR. In all cases, strong repression of transcription was observed over the course of 2 hours except when tested against the positive control (anhydrotetracyline), or in the absence of the repressor (the unregulated reaction).
# TetR [3] = target: T4, TetR; experiment: TetR regulated in vitro transcription of strand-invading RNA (InvadeR), DNA output gate; type: biochemical; conditions: FIG. 9
# From the text: We next transcribed a strand-invading RNA (“InvadeR”) to illustrate that an alternative RNA output can also be visualized in real-time. The InvadeR system works through toehold-mediated strand displacement of a DNA output gate. The DNA output gate consists of 2 annealed and complementary strands (“reporter” and “quencher,” boxed in FIG. 3A). The reporter strand consists of 24 nucleotides and a 3′ fluorophore, while the quencher strand contains 16 complementary nucleotides and a 5′ quencher. When annealed, the two strands leave an 8-nucleotide single-stranded “toehold” region on the 5′ end of the reporter strand. Spatial proximity of the 3′ fluorophore and 5′ quencher results in fluorescence quenching (the “OFF” state). For the InvadeR system described here, we utilized a 3′ terminal single isomer derivative of fluorescein (6-FAM) and a quencher strand with a 5′ terminal Iowa Black FQ quencher. […]
# Upon transcription of the InvadeR sequence, which contains 24 nucleotides of perfect complementarity to the reporter strand, the RNA product hybridizes to the single-stranded toehold region of the DNA output gate. This initiates a strand invasion reaction that eventually displaces the quencher strand and alleviates fluorescence quenching (the “ON” state). […]
smiles,measurement,setting,value
CC[C@H]1OC(=O)[C@H](C)[C@@H](O[C@H]2C[C@@](C)(OC)[C@@H](O)[C@H](C)O2)[C@H](C)[C@@H](O[C@@H]2O[C@H](C)C[C@H](N(C)C)[C@H]2O)[C@](C)(O)C[C@@H](C)C(=O)[C@H](C)[C@@H](O)[C@]1(C)O [erythromycin],signal across ligand families,MphR,strong signals from cognate ligands with minimal crosstalk
[Cu+2] [copper],sensitivity of the sensor,"CsoR; CsoR tetramer increased to 7.5 μM, FIG. 26a",1 ppm
same,signal across ligand families,CsoR; FIG. 24,strong signals from cognate ligands with minimal crosstalk
same,reactivity of the copper sensor against metals,CsoR,can respond to copper as well as zinc
same,concentration detected by the sensor,"CsoR; without any tuning, CsoR tetramer 2.5 μM, FIG. 26a",≥ 0.3 ppm
O=C(O)c1ccccc1O [salicylate],signal across ligand families,SAR2349,strong signals from cognate ligands with minimal crosstalk
[Pb+2] [lead],concentration detected by the sensor,CadC,tens of ppb
[Zn+2] [zinc],fluorescence-activation on titration of ligand,AdcR,increased fluorescence-activation
same,reactivity of the copper sensor against metals,CsoR,can respond to copper as well as zinc
Cc1c2c(c(O)c3c(O)cccc13)C(=O)[C@]1(O)C(=O)C(C(N)=O)=C(O)[C@@H](N(C)C)[C@@H]1C2 [anhydrotetracycline],relief of TetR repression,"TetR [1]; SP6 RNAP, FIG. 11B",repression is partially relieved
same,relief of TetR repression,"TetR [1]; T3 RNAP, FIG. 11A",repression is partially relieved
same,"relief of TetR repression, aptamer-activated fluorescence",TetR [2],restored aptamer-activated fluorescence close to or exceeding the level of fluorescence observed
same,derepression/induction of TetR-repressed InvadeR system,TetR [3],derepression/induction
